Laboratory results taken from ChEMBL document CHEMBL4130588, “Ubiquitin-Specific Inhibitors for the Treatment of Cancers, Autoimmune, and Infectious Diseases” (ACS Med Chem Lett, 2017).

How the values were obtained:
[1] = Inhibition of recombinant human His6-tagged USP28-5 (1 to 1077 residues) using Ub-Rh110 as substrate pretreated for 30 mins followed by substrate addition measured after 20 mins by fluorescence assay
[2] = target: T1, Ubiquitin carboxyl-terminal hydrolase 25 (Homo sapiens, UniProt Q9UHP3); experiment: Inhibition of recombinant human His6-tagged USP25 expressed in baculovirus infected Sf21 insect cells using Ub-Rh110 as substrate pretreated for 30 mins followed by substrate addition measured after 45 mins by fluorescence assay
T1 sequence (Q9UHP3 whole entry): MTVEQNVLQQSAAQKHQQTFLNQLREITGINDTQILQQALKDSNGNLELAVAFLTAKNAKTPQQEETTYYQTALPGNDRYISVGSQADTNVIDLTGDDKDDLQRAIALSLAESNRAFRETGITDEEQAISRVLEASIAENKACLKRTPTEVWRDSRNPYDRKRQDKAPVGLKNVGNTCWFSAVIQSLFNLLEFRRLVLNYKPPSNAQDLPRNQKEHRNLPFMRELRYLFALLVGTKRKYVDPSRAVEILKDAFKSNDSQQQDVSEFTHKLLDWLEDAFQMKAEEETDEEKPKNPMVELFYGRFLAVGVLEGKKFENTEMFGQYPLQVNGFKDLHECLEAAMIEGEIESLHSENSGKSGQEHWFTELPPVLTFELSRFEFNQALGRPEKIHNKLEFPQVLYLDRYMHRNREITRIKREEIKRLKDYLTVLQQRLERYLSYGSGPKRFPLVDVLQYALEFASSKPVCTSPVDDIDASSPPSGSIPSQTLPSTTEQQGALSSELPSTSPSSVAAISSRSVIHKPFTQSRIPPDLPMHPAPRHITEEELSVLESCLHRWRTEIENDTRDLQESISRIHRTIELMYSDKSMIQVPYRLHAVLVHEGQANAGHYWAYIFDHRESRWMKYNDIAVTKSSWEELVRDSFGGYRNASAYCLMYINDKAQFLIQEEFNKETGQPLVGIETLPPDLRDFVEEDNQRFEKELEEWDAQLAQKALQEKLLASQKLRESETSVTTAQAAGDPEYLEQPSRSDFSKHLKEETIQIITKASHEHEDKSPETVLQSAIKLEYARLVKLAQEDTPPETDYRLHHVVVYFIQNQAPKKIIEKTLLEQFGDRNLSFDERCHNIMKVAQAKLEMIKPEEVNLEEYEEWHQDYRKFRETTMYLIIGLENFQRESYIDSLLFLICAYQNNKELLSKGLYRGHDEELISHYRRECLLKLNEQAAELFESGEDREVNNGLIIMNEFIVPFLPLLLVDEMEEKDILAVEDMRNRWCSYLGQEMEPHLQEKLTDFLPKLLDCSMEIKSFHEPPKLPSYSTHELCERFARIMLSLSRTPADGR

SMILES	IC50 [1] [nM]	IC50 [2] [nM]
Cc1cnc2c(N)c(C(=O)NCCc3ccc(N4CC5CCC(C4)N5)c(Cl)c3)sc2n1	< 200	–
Cc1cnc2c(N)c(C(=O)NCCc3ccc(N4CC5CCC(C4)N5)c(F)c3)sc2n1	< 200	< 200
Cc1cnc2c(N)c(C(=O)NCCc3ccc(N4CCNCC4)c(Cl)c3)sc2n1	200 to 2000	–
Cc1cnc2c(N)c(C(=O)NCCc3ccc(N4CCNCC4)cc3)sc2n1	200 to 2000	–
Cc1cnc2c(N)c(C(=O)NCCc3cc(F)c(N4CC5CCC(C4)N5)cc3F)sc2n1	< 200	200 to 2000
Cc1cnc2c(N)c(C(=O)NC[C@@H](C)c3ccc(N4CC5CCC(C4)N5)c(F)c3)sc2n1	200 to 2000	2000 to 10000
Cc1cnc2c(N)c(C(=O)NC[C@H](C)c3ccc(N4CC5CCC(C4)N5)c(F)c3)sc2n1	200 to 2000	2000 to 10000
Cc1cnc2c(N)c(C(=O)NCCc3cc(F)c(N4CCNCC4)cc3F)sc2n1	200 to 2000	2000 to 10000
